Square brackets hold non-standard residues; d marks the D form. Peptide text beside a SMILES is read from it. Tyr(3-I) = N[C@@H](Cc1ccc(O)c(I)c1)C(=O)O; Orn = NCCC[C@H](N)C(=O)O
Assays:
caspase-3 = molecular target: T1, caspase-3 (Homo sapiens, UniProt P42574); assay: Caspase-3 assay kit (BIOMOL QuantiZyme Assay System), potency (Ki) of caspase-3 test substrates; format: biochemical
T1 construct: purchased BIOMOL
T1 sequence (P42574 29-175 limits assumed): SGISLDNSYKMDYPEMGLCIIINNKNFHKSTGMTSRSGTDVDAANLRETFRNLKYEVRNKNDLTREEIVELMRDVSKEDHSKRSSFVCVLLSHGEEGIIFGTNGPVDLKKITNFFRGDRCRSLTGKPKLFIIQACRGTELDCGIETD
T1 sequence (P42574 176-277 limits assumed): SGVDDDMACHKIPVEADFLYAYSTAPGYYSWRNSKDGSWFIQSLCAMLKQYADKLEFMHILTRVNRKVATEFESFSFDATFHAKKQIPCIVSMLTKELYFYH
Experimental: Potency (Ki) of the caspase-3 test substrates was evaluated using a commercially available caspase-3 assay kit (BIOMOL QuantiZyme™ Assay System, CASPASE-3 Assay Kit for Drug Discovery). The DEVD substrate sequence was bio-modified with the additional of both tyrosine residues for radiolabelling and leader sequence to aid cell penetration. In vitro potency was maintained following both of these bio-modifications.

[1] = tested on: phosphatidylserine (PS) on the outer membrane of apoptotic cells; conditions: read-out: affinity of binding to phosphatidylserine; cited from earlier work

`CC(=O)N[C@@H](CC(=O)O)C(=O)N[C@@H](CCC(=O)O)C(=O)N[C@H](C(=O)N[C@@H](CC(=O)O)C(=O)NCC(=O)N[C@@H](Cc1ccc(O)c(I)c1)C(N)=O)C(C)C` [Compound 2] (Ac-DEVDG[Tyr(3-I)]-NH2) gave a Ki (caspase-3) of 7.83 µM.
Compound `CC(=O)N[C@@H](CCCNC(=N)N)C(=O)N[C@@H](CCCCN)C(=O)N[C@@H](CCCCN)C(=O)N[C@@H](CCCNC(=N)N)C(=O)N[C@@H](CCCNC(=N)N)C(=O)N[C@@H](CCCN)C(=O)N[C@@H](CCCNC(=N)N)C(=O)N[C@@H](CCCNC(=N)N)C(=O)N[C@@H](CCCNC(=N)N)C(=O)NCC(=O)N[C@@H](CC(=O)O)C(=O)N[C@@H](CCC(=O)O)C(=O)N[C@H](C(=O)N[C@@H](CC(=O)O)C(=O)NCC(=O)N[C@@H](CCCCN)C(=O)N[C@@H](CCCCN)C(=O)N[C@@H](Cc1ccc(O)c(I)c1)C(N)=O)C(C)C` [Compound 22] (Ac-RKKRR[Orn]RRRGDEVDGKK[Tyr(3-I)]-NH2) has a Ki (caspase-3) of 9.24 µM.
In the case of “Annexin-5: endogenous human protein (RMM 36 kDa) which binds to phosphatidylserine on apoptotic cells”, the Kd [1] is listed as about 0.001 µM.
Compound `CC(=O)N[C@@H](CC(=O)O)C(=O)N[C@@H](CCC(=O)O)C(=O)N[C@H](C(=O)N[C@@H](CC(=O)O)C(=O)Nc1ccc2c(C)cc(=O)oc2c1)C(C)C` [Ac-Asp-Glu-Val-Asp-AMC, reference compound] has a Ki (caspase-3) of 7.74 µM.

Reference: patent US20080286201A1, “Caspase-3 Substrate Comprising Imaging Agents” (priority 2005, published 2008)
